≈ marks a conversion by molar mass, not a printed value.
Experiment: Water solubility of monomer building blocks (Tables 1 and 2)
Format: physicochemical
Conditions: for solubility: water

SMILES | solubility (Table 2, unit inferred) [µg/mL] | further results
O=C(O)c1ccc(O)cc1 [4-hydroxy benzoic acid] | 8000 (≈ 57.9 mM) | 
O=C(O)CCc1ccc(O)cc1 [DAT] | 1630 (≈ 9.81 mM) | 
NC(C(=O)O)c1ccc(O)cc1 (centres unmarked) [Hydroxyphenyl glycine] |  | solubility: 5000 µg/mL (≈ 29.9 mM)
O=C(O)COCC(=O)O [Diglycolic acid] |  | Water Solubility (Table 2, unit not given): Water soluble
O=C(O)CCCC(=O)O [Glutaric acid] | 640000 (≈ 4840 mM) | 
